Experiments:
[1] = tested on: platelet aggregation induced by ADP; test: Inhibition of rat washed platelet aggregation induced by ADP (turbidimetric); assay type: cell-based; details: ADP 22 μM, rat washed platelets
Method: (§1) Rats were paralyzed with ethyl ether and blood samples were collected from abdominal aorta with a syringe containing anticoagulant 0.15 M sodium citrate whose volume ratio is 1:9 compared with blood sample volume. Blood samples were centrifuged at 200×g for 10 min to obtain platelet rich plasma (PRP) as supernatant. PRP was centrifuged at 800×g for 15 min, and precipitated platelets were washed two times with a washing buffer (137 mM NaCl, 2.9 mM KCl, 1 mM MgCl2, 5 mM glucose, 12 mM NaHCO3, 0.34 mM Na2HPO4, 1 mM EDTA, 20 mM HEPES, 0.25% BSA, pH 7.4) and suspended in a suspension buffer (suspension buffer. 137 mM NaCl, 2.9 mM KCl, 1 mM MgCl2, 5 mM glucose, 12 mM NaHCO3, 0.34 mM Na2HPO4, 20 mM HEPES, 0.25% BSA, pH 7.4) to prepare washed platelets. Platelet numbers of washed platelets used in measurement of inhibitory effect on platelet aggregation were counted with a cell counter (cell counter. Hema-vet HV950FS, Drew Scientific, USA), and washed platelets were diluted with a buffer solution so as to adjust the platelet count to 3×10^8 platelets/mL. Since platelets are aggregated at low temperatures, the foregoing experiment was carried out at room temperature.
(§2) Inhibitory effect on rat platelet aggregation was measured by turbidimetric method using an aggrerometer (Chrono-Log Co., Ltd., Havertown, Pa., USA). Washed platelets were incubated at 37° C. for 3 min and treated with various concentrations of extracts. After 2 min, platelet aggregation was induced by a platelet aggregation-inducing substance, ADP (22 μM) or collagen (20 μg/mL). Platelet aggregation was measured for 10 min and the inhibition extent of platelet aggregation was calculated. Platelets which were not treated with extracts were used for control, and the inhibition extent of platelet aggregation was calculated using the following equation.
(§3) The inhibition extent of platelet aggregation=[(A−B)/A]×100 [Equation 1] • A: aggregation % of control • B: aggregation % of extract-treated platelets

[2] = tested on: platelet aggregation induced by collagen; test: Inhibition of rat washed platelet aggregation induced by collagen (turbidimetric); assay type: cell-based; details: collagen 20 μg/mL, rat washed platelets
Method: as §1, §2, §3

thromboembolism = test: Inhibitory effect on thromboembolism induced by collagen and epinephrine injected into the tail vein; assay type: in vivo, mouse; details: oral administration 1 h prior to collagen + epinephrine injection, mice
Method: Experimental thrombosis induction in animals was based on Diminno's method. When a platelet aggregation inducer is injected into a tail vein of a mouse, a large amount of thrombus formation is induced in the pulmonary artery to kill the animal, and by observing whether this can be recovered or not, the inhibition extent of thrombus formation is measured. A mixture solution of collagen (Chrono-Log, […]) and epinephrine (Chrono-Log, 2 μg/mouse) was prepared to be contained in 200 μL of physiological saline as a platelet aggregation inducer and injected into the tail vein of mice. Extract suspension or physiological saline was orally administered in proportion to body weight at 1 h prior to injection of the platelet aggregation inducer to investigate antithrombotic effect. The antithrombotic effect was calculated as percentage of the number of experimental animals protected from hind leg paralysis or death induced by the injection of platelet aggregation inducer. Antithrombotic effect of extracts was determined by observing whether recovery from the persistence of paralysis for 15 min or longer after injection, death, or paralysis occurred or not. The survival rate (%) of each group was calculated with the following equation.
The survival rate (%)=(D/C)×100 [Equation 2] • C: the number of animals to which collagen was precisely injected. • D: the number of survived animals among animals to which collagen was precisely injected.

CC(=O)Oc1ccccc1C(=O)O [Aspirin]
inhibition at 100 µg/mL ([1]; final concentration 0.1 mg/mL): 15.9%
inhibition at 1000 µg/mL ([1]; final concentration 1 mg/mL): 52.3%
inhibition at 10000 µg/mL ([1]; final concentration 10 mg/mL): 93.2%
inhibition at 100 µg/mL ([2]; final concentration 0.1 mg/mL): 18.5%
inhibition at 1000 µg/mL ([2]; final concentration 1 mg/mL): 51.9%
inhibition at 10000 µg/mL ([2]; final concentration 10 mg/mL): 94.4%
1st (survived animals/injected animals, D/C) (thromboembolism; 1st experiment): 15/19
2nd (survived animals/injected animals, D/C) (thromboembolism; 2nd experiment): 9/20
3rd (survived animals/injected animals, D/C) (thromboembolism; 3rd experiment): 9/19
Survival rate (%) (thromboembolism; (D/C)×100): 56%
Sum (D/C) (thromboembolism; sum of three experiments): 33/58
